From patent US7252944B2, “Methods and compositions for modulating cell proliferation” (IRM LLC, priority 2003, dated 2007)

Experiments:
[1] = system: hog1-as1 mutant strain (hog1-27); experiment: Genome-wide expression analysis, hog1-as1 mutant strain under salt; format: cell-based, Saccharomyces cerevisiae; details: MUTS+1-NM-PP1 versus MUTS+DMSO; 1-NM-PP1 2 μM, 0.9 M NaCl
Experimental: (§1) Genome-wide expression analysis: Total RNA preparation from hog1-27 strain was performed as described previously (Holstege et al., Cell 95, 717-28, 1998). To monitor the changes in expression caused by specific inhibition of Hog1 kinase, cultures of either wt or hog1-27 were incubated with 1-NM-PP1 (2 μM) for 30 minutes before harvesting (for control, 0.002% DMSO was added). To monitor the effect of osmotic stress, sodium chloride was added into either inhibitor-treated or DMSO-treated cultures to a final concentration of 0.9 M.
(§2) The preparation of probe and the procedure for microassay experiments was performed as described in the literature. The output files from the scanner were uploaded into the GNF chip informatics server and expression profiles were analyzed using a built-in analysis program, ANOVA. Search for the common transcriptional regulatory elements was done using the promoter database of Saccharomyces cerevisiae at the Cold Spring Harbor Laboratory.
For DNA micro-array experiments, total RNAs were isolated from both the wt strain and the hog1-as1 mutant strain (hog1-27) treated with DMSO (WT+DMSO, MUT+DMSO), salt and DMSO (WTS+DMSO, MUTS+DMSO), salt and inhibitor (WTS+1-NM-PP1, MUTS+1-NM-PP1). For each experiment, RNA samples were prepared in duplicates, followed by the preparation of the corresponding biotinylated cRNA probes and hybridized to Yeast Genome S98 arrays (Affymetrix). Two expression profiles were first examined between duplicate samples to ensure reproducibility and the whole procedure was repeated three times. […] To analyze the number of genes affected by salt addition, expression profiles of MUTS+DMSO versus MUT+DMSO were compared by ANOVA (Brazma and Vilo, 2000). The expressions of 874 genes in the mutant strain were changed more than 2.5 fold by the addition of salt. Thus, the analysis covered almost the full complement of genes known to be affected by osmotic stress.
The effect of inhibition in the hog1-as1 mutant strain was examined by comparing the expression profiles of MUTS+1-NM-PP1 versus MUTS+DMSO. […]

wt strain = experiment: Genome-wide expression analysis, wt strain under salt; format: cell-based, Saccharomyces cerevisiae; details: 1-NM-PP1 2 μM, 0.9 M NaCl
Experimental: as §1, §2
For DNA micro-array experiments, total RNAs were isolated from both the wt strain and the hog1-as1 mutant strain (hog1-27) treated with DMSO (WT+DMSO, MUT+DMSO), salt and DMSO (WTS+DMSO, MUTS+DMSO), salt and inhibitor (WTS+1-NM-PP1, MUTS+1-NM-PP1). […]

SHMT = details: background statement; cited from earlier work
SHMT1 [2] = experiment: SHMT1 activity immunoprecipitated from sorbitol-stimulated SHMT1-HEK293 cells; format: cell-based, human; details: serum-starved SHMT1-HEK293 cells, 0.3 M sorbitol, 15 or 30 min; FIG. 3
Experimental: Transfection and retroviral infection: SHMT1 (human homolog of yeast Shm2) with a C-terminal myc tag was cloned into pBabe puro plasmid and was transiently transfected into Bosc 23 cells using Effectene (Qiagen) as manufacturer's protocol. The harvested retroviruses was added to 5×10^5 HEK-293 cells for infection. After 48 hours the infected cells were selected in the presence of 2.5 µg/mL of puromycin. SHMT1-HEK293 cells were cultured in DMEM with 10% Bovine Calf Serum (BCS) and were serum-starved for 24 hr in DMEM with 0.5% BCS.
Transient transfection and SHMT1 assay: MKK6b was cloned into pcDNA6Hismyc B vector (Invitrogen) and MKK6b-EE was further generated using Quick change protocol (Stratagene). Transient transfection of MKK6b-EE into SHMT1-HEK 293 cells was carried using Lipofectamine 2000 (Invitrogen) according to the manufacturer's protocol. […] SHMT1 or phosphorylated form of p38α was detected by immunobloting with either c-myc antibody (Santa Cruz) or phospho-p38 antibody (Cell Signal) using West pico supersignal kit (Pierce).
Finally, to investigate whether SHMT1 was also an in vivo target of p38 MAP kinase, myc-tagged SHMT1 expressing HEK 293 stable cells were generated. […] SHMT1 was immunoprecipitated at different time points after stimulation and its enzymatic activity was measured as described above. […]

Shm2 = target: T1, Shm2 (Saccharomyces cerevisiae, UniProt P37291); experiment: Enzymatic assay for serine hydroxymethyltransferase 2 (Shm2) after pre-incubation with kinase; format: biochemical; details: in vitro; pre-incubation with p38α and 1 mM ATP, 30 min RT; FIG. 2D
T1 construct: made in house; host or cells: Saccharomyces cerevisiae
T1 sequence (P37291 1-469): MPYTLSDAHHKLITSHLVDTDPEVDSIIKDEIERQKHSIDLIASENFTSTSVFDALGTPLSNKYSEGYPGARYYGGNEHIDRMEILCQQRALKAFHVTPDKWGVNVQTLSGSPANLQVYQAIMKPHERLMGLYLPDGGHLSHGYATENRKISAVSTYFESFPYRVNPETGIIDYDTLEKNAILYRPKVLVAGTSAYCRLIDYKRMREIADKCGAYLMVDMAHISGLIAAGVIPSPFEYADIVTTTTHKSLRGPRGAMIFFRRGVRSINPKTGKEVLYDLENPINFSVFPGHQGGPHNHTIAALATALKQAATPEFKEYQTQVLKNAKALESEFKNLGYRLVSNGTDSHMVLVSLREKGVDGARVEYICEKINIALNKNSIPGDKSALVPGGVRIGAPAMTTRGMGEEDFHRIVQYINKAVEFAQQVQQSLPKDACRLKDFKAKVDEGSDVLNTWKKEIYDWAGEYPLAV
Experimental: (§3) Enzymatic assay for serine hydroxymethyltransferase 2 (Shm2): GST-Shm2 was purified from a yeast strain as described above and its enzymatic activity was measured as described earlier (Krishna Rao et al., Biochem J 343 Pt 1, 257-63, 1999) with minor modifications. To measure the effect of either Hog1-as1 or p38 kinases, Shm2 enzyme was pre-incubated with each kinase in presence of either 1 mM PE-ATP (for Hog1-as1) or 1 mM ATP (for p38) for 30 min at RT before adding to the reaction mixture.
To determine Shm2 activity, we measured the transfer of C^14-labeled one-carbon unit as described in the Krishna Rao et al., Biochem J 343 Pt 1, 257-63, 1999. In order to estimate the effect of phosphorylation, Shm2 was pre-incubated with or without Hog 1 kinase, prior to the C^14 transfer reaction.

SHMT1 [3] = target: T2, SHMT1 (Homo sapiens, UniProt P34896); experiment: SHMT1 enzymatic assay after phosphorylation by p38; format: biochemical; details: stated as in vitro; FIG. 4
T2 construct: expressed in transfected cells; host or cells: HEK-293 cells, retroviral infection with pBabe puro and puromycin selection (SHMT1-HEK293)
T2 sequence (P34896 1-483): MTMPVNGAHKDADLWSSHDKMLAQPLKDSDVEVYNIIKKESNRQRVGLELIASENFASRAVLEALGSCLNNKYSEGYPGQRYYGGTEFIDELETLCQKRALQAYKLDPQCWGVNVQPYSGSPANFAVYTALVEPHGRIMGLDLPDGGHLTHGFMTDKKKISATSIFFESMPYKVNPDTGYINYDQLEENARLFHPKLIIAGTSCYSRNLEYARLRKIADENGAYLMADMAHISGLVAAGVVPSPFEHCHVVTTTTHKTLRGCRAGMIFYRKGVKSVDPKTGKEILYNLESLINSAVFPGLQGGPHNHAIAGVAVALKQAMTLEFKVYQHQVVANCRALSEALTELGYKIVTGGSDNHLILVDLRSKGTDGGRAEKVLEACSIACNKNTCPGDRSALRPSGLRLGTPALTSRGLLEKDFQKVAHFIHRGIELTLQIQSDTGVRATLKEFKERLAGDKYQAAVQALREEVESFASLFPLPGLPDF
Experimental: as §3
Transient transfection and SHMT1 assay: MKK6b was cloned into pcDNA6Hismyc B vector (Invitrogen) and MKK6b-EE was further generated using Quick change protocol (Stratagene). Transient transfection of MKK6b-EE into SHMT1-HEK 293 cells was carried using Lipofectamine 2000 (Invitrogen) according to the manufacturer's protocol. Immunoprecipitation procedure for SHMT1 from transfected cells was described previously (Shah and Shokat, Chem Biol 9, 35-47, 2002). SHMT1 enzymatic assay was carried out exactly as Shm2 assay as described above. SHMT1 or phosphorylated form of p38α was detected by immunobloting with either c-myc antibody (Santa Cruz) or phospho-p38 antibody (Cell Signal) using West pico supersignal kit (Pierce).

## CC(C)(C)n1nc(Cc2cccc3ccccc23)c2c(N)ncnc21 [1-NM-PP1]
[1]
  number of genes affected more than 2-fold by addition of inhibitor: 96 genes
  number of genes downregulated by addition of inhibitor: 81 genes
  number of genes upregulated by addition of inhibitor: 15 genes
Wt strain
  number of genes affected by addition of inhibitor: 11 genes

## CN(Cc1cnc2nc(N)nc(N)c2n1)c1ccc(C(=O)N[C@@H](CCC(=O)O)C(=O)O)cc1 [methotrexate]
SHMT
  inhibition of SHMT activity: failed to inhibit SHMT activity significantly

## OC[C@@H](O)[C@@H](O)[C@H](O)[C@@H](O)CO [sorbitol]
SHMT1 [2]
  SHMT1 enzymatic activity after sorbitol treatment: decreased activity of SHMT1

## p38 MAP kinase: Active p38α MAP kinase purchased from Upstate Inc.; human homolog of Hog1
Shm2
  modulation of Shm2 enzymatic activity upon phosphorylation: ~50%
SHMT1 [3]
  modulation of SHMT1 enzymatic activity upon phosphorylation: 30%
